Assay results as given in ChEMBL document CHEMBL1148159, “An analysis of phakellin and oroidin structures stimulated by further study of an Agelas sponge” (J Nat Prod, 2004).

Target: T1, Polyunsaturated fatty acid lipoxygenase ALOX12 (Homo sapiens, UniProt P18054)
T1 sequence (P18054 whole entry): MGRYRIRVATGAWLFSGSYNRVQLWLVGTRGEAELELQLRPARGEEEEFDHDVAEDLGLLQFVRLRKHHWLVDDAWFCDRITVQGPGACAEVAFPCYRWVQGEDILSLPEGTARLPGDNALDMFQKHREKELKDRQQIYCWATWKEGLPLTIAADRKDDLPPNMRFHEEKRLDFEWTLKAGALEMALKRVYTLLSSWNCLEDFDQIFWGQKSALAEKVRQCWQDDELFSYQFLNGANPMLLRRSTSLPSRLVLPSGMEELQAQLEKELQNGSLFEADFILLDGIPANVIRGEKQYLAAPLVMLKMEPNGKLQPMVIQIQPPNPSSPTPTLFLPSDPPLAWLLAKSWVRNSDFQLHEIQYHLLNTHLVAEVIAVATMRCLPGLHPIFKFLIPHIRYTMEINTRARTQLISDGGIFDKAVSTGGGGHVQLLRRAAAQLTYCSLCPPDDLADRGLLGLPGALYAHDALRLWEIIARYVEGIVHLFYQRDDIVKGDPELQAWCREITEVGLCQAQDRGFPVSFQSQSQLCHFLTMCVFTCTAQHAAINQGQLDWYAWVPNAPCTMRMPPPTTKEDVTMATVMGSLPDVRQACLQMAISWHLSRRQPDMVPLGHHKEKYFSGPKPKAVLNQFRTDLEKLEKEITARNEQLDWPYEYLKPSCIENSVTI
Test: Inhibition of human 12-lipoxygenase

Q: How did the IC50 turn out when `CN1C(N)=N[C@]23CCCN2C(=O)c2cc(Br)c(Br)n2[C@H]13` was run?
A: 10.7 µM
